The values below come from patent US9670189B2, “Substituted condensed pyrimidine compounds” (GRÜNENTHAL GMBH, priority 2013, dated 2017).

A word on the melting point: it is the temperature of the solid-liquid transition. For orientation: IC50 means the concentration that gives 50% inhibition.

Data set [1] concerns the target T1, human PDE4B1 (Homo sapiens, UniProt Q07343).
T1 construct: host or cells: Sf9 cells
Kind of data set: cAMP HTRF assay to determine the activity of hPDE4B1. The data set is classed as biochemical. To be noted: for inhibition at 1 µM: 1 μM test concentration, human recombinant PDE4B1, cAMP 40 nM, read-out: Inhibition at 1 μM test concentration [%] (Percentage inhibition of PDE4B); for IC50: measured according to the cAMP HTRF hPDE4B1 assay, read-out: PDE4B IC50. As for the experimental part: cAMP HTRF® Assay to Determine the Activity of hPDE4B1
The inhibiting effect of the compounds on the enzyme activity of human PDE4B1 was measured by the quantification of 5′-adenosine monophosphate (5′-AMP), which is formed from 3′,5′-adenosine monophosphate (cAMP). Human recombinant enzyme, expressed in Sf9 cells, and the HTRF (homogeneous time-resolved fluorescence) detection method were used in the assay.
The test compound or water (control) was mixed with the human recombinant PDE4B1 enzyme (4.8 U) in a buffer consisting of 44.4 mM tris-HCl, 5.28 mM MgCl2, 2.64 mM DTT and 0.044% Tween 20 (pH 7.8). After adding the cAMP enzyme substrate (final concentration 40 nM) the mixture was incubated for 30 minutes at room temperature. Then a fluorescence acceptor (Dye2 marked with cAMP), a fluorescence donor (anti-cAMP antibody marked with a europium cryptate) and the non-specific phosphodiesterase inhibitor IBMX (3-isobutyl-1-methylxanthine; final concentration 1 mM) were added. After 60 minutes the fluorescence transfer, which correlates with the amount of remaining cAMP, was measured with a microplate reader (Rubystar, BMG) at λex=337 nm, λem=620 nm and λem=665 nm. The enzyme activity was calculated from the quotient formed from the measured signal at 665 nm and that at 620 nm. The result was expressed as the percentage inhibition of enzyme activity of the control (without PDE4 inhibitor) (literature: N. Saldou et al., Comparison of recombinant human PDE4 isoforms: interaction with substrate and inhibitors, Cell. Signal. Vol. 10, No. 6, 427-440, 1998). The enzyme was omitted for measurement of the basal control.

T1 sequence (Q07343 whole entry): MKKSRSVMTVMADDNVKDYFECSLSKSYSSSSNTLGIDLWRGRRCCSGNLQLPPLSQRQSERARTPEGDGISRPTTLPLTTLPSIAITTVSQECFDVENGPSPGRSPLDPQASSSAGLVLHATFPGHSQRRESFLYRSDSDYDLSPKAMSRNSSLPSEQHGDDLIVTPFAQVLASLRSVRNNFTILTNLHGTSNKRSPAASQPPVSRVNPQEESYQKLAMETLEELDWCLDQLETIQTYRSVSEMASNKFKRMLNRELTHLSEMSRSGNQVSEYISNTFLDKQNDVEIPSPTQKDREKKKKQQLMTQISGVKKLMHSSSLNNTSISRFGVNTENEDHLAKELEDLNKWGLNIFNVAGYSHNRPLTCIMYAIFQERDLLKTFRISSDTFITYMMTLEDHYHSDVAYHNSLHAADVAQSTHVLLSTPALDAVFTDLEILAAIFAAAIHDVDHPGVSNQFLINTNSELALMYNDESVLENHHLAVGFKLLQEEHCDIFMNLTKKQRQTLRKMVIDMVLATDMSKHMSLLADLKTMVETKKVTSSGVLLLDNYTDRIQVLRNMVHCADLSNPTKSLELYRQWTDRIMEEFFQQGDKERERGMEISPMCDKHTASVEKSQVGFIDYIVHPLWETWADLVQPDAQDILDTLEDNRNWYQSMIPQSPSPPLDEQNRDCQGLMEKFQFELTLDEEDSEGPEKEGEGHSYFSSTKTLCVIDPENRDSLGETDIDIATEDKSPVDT

In the case of `COc1ccc(-c2nc3c(c(Oc4ccc(CC(=O)O)cc4)n2)CCC3)cc1F` [Compound 1, 2-(4-(2-(3-Fluoro-4-methoxyphenyl)-6,7-dihydro-5H-cyclopenta[d]pyrimidin-4-yloxy)phenyl)acetic acid], the inhibition at 1 µM in data set [1] amounted to 74%. As for `COc1ccc(-c2nc3c(c(Oc4ccc(CC(=O)O)cc4)n2)CCC3)cc1Br` [Compound 14, 2-(4-(2-(3-Bromo-4-methoxyphenyl)-6,7-dihydro-5H-cyclopenta[d]pyrimidin-4-yloxy)phenyl)acetic acid], the melting point was in the range of 263 to 264 °C. For the same compound, the inhibition at 1 µM in data set [1] amounted to 68%. Take `COc1ccc(-c2nc3c(c(Oc4ccc(CC(=O)O)cc4)n2)CS(=O)(=O)C3)cc1` [Compound 18, 2-[4-[[2-(4-Methoxyphenyl)-6,6-dioxo-5,7-dihydro-thieno[3,4-d]pyrimidin-4-yl]oxy]-phenyl]-acetic acid]: in data set [1], the inhibition at 1 µM stood at 112% and the IC50 was under 100 nM. For `O=C(O)Cc1ccc(Oc2nc(-c3ccc(O)c(Cl)c3)nc3c2CCC3)cc1` [Compound 13, 2-(4-(2-(3-Chloro-4-hydroxyphenyl)-6,7-dihydro-5H-cyclopenta[d]pyrimidin-4-yloxy)phenyl)acetic acid], the inhibition at 1 µM in data set [1] is 72%.

With `Cc1sc(-c2nc3c(c(Oc4ccc(CC(=O)O)cc4)n2)CCC3)cc1Br` [Compound 50, 2-(4-(2-(4-Bromo-5-methylthiophen-2-yl)-6,7-dihydro-5H-cyclopenta[d]pyrimidin-4-yloxy)phenyl)acetic acid], in data set [1], the inhibition at 1 µM came to 47%. As for `O=C(O)Cc1ccc(Oc2nc(-c3ccc(Cl)s3)nc3c2CS(=O)(=O)C3)cc1` [Compound 21, 2-[4-[[2-(5-Chloro-thiophen-2-yl)-6,6-dioxo-5,7-dihydro-thieno[3,4-d]pyrimidin-4-yl]oxy]-phenyl]-acetic acid], in data set [1], the inhibition at 1 µM turned out to be 91% and the 50% inhibitory concentration (IC50) was under 100 nM.
